According to patent US8410112B2, “Compounds useful as inhibitors of ATR kinase” (Vertex Pharmaceuticals Incorporated, priority 2008, dated 2013):

Each compound was assayed against T1, full-length ATR (Homo sapiens, UniProt Q13535) (assay: ATR Inhibition Assay (radioactive-phosphate incorporation)). Settings: Ki(app); 5 nM full-length ATR, 10 μM ATP, 800 μM target peptide, 25° C.
T1 construct: in the presence of 5 nM full-length ATR
Assay type: biochemical
Protocol: Test compounds were screened for their ability to inhibit ATR kinase using a radioactive-phosphate incorporation assay. Assays were carried out in a mixture of 50 mM
Tris/HCl (pH 7.5), 10 mM MgCl2 and 1 mM DTT. Final substrate concentrations were 10 μM [γ-33P]ATP (3 mCi 33 P ATP/mmol ATP, Perkin Elmer) and 800 μM target peptide ([…]). Assays were carried out at 25° C. in the presence of 5 nM full-length ATR. An assay stock buffer solution was prepared containing all of the reagents listed above, with the exception of ATP and the test compound of interest. […] The plate was pre-incubated for 10 minutes at 25° C. and the reaction initiated by addition of 15 μL [γ-33P]ATP (final concentration 10 μM).
The reaction was stopped after […] by the addition of 30 μL 0.1M phosphoric acid containing 2 mM ATP. A multiscreen phosphocellulose filter 96-well plate (Millipore, Cat no. MAPHN0B50) was pretreated with 100 μL 0.2M phosphoric acid prior to the addition of 45 μL of the stopped assay mixture. The plate was washed with 5×200 μL 0.2M phosphoric acid.
After removing mean background values for all of the data points, Ki(app) data were calculated from non-linear regression analysis of the initial rate data using the Prism software package (GraphPad Prism version 3.0cx for Macintosh, GraphPad Software, San Diego Calif., USA).

T1 sequence (Q13535 whole entry): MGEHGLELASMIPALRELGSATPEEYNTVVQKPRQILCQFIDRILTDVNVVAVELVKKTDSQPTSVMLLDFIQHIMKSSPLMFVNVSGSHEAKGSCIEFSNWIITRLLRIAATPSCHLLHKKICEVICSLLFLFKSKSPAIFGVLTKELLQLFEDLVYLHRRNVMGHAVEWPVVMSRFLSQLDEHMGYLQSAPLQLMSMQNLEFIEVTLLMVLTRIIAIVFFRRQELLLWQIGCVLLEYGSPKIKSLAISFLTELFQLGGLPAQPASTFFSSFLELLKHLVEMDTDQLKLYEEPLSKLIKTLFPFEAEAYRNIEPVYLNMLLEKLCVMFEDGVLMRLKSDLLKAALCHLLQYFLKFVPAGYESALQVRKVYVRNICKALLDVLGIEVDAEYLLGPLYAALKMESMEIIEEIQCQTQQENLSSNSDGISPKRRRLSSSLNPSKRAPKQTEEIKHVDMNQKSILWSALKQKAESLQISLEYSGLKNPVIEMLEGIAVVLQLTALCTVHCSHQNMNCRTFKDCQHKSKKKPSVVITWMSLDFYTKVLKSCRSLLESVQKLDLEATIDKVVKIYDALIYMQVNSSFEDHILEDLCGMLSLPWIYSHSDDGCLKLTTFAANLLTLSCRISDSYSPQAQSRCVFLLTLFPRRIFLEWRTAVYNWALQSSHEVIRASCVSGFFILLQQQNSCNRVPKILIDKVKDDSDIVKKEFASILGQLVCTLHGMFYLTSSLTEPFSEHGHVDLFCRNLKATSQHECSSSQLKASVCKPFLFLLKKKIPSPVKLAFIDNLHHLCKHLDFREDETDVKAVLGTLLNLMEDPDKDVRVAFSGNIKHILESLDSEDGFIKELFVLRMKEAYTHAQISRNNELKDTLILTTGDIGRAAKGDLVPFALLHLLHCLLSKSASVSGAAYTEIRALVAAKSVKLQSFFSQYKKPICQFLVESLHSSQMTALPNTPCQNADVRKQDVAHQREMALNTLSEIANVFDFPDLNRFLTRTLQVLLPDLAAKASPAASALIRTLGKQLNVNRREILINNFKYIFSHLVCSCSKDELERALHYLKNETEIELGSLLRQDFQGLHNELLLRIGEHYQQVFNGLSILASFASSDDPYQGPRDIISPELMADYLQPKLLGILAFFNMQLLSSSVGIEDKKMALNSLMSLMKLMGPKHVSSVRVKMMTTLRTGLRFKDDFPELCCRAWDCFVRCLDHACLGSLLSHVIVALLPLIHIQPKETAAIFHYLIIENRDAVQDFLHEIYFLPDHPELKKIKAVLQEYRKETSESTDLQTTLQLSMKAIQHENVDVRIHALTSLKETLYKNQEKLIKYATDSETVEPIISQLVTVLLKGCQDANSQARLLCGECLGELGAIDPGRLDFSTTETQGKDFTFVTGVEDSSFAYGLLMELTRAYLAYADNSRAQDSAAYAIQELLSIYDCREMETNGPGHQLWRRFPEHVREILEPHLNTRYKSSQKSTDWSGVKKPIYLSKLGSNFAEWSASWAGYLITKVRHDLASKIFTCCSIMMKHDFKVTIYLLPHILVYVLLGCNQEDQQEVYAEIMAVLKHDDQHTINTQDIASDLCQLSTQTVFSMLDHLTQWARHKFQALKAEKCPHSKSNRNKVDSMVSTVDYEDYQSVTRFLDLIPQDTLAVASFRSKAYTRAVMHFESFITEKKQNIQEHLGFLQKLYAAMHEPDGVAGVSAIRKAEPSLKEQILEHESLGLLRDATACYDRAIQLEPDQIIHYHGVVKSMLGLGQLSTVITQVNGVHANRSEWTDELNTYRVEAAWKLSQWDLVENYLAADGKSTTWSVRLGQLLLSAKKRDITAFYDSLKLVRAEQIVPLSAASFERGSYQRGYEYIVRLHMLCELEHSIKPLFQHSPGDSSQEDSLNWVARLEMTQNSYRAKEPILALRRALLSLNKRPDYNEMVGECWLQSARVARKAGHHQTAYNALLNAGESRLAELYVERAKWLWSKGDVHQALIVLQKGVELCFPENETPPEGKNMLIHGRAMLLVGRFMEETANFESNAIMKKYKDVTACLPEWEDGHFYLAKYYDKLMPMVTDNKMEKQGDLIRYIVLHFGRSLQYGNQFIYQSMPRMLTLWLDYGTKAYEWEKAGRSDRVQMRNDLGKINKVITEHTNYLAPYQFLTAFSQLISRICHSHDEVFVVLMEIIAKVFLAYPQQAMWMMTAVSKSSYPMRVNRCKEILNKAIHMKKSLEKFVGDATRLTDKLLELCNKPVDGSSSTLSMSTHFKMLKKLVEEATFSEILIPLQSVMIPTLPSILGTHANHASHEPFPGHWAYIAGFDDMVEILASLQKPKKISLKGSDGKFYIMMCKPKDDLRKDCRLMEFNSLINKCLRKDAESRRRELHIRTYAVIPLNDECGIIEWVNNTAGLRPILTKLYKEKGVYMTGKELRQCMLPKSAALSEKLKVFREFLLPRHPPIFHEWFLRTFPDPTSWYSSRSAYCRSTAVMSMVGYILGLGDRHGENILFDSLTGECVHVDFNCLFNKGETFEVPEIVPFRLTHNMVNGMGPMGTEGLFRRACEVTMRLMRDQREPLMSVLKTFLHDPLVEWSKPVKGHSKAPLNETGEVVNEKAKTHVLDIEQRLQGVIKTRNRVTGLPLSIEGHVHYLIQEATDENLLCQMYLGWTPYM

SMILES	Ki
CC(C)C(=O)N1CCN(c2cnc(N)c(C(=O)Nc3ccccn3)n2)CC1 [Compound I-68, 3-amino-6-(4-(2-methylpropanoyl)piperazin-1-yl)-N-(pyridin-2-yl)pyrazine-2-carboxamide]	100 to 1000 nM
CCC(=O)NC1CC=C(c2cnc(N)c(-c3nnc(-c4ccc(CNC)cc4)o3)n2)CC1 (centres unmarked) [Compound I-367, N-(4-(5-Amino-6-(5-(4-((methylamino)methyl)phenyl)-1,3,4-oxadiazol-2-yl)pyrazin-2-yl)cyclohex-3-enyl)propionamide]	< 100 nM
Nc1ncc(C2=CCN(S(=O)(=O)c3ccccc3)CC2)nc1-c1nnc(-c2ccccc2)o1 [Compound I-102, 3-(5-phenyl-1,3,4-oxadiazol-2-yl)-5-(1-(phenylsulfonyl)-1,2,3,6-tetrahydropyridin-4-yl)pyrazin-2-amine]	< 100 nM
COCCOCC(=O)N1CC=C(c2cnc(N)c(-c3nnc(-c4ccccc4)o3)n2)CC1 [Compound I-135, 1-(4-(5-amino-6-(5-phenyl-1,3,4-oxadiazol-2-yl)pyrazin-2-yl)-5,6-dihydropyridin-1(2H)-yl)-2-(2-methoxyethoxy)ethanone]	< 100 nM
Nc1ncc(C2=CCN(S(=O)(=O)c3cccs3)CC2)nc1-c1nc2ccccc2[nH]1 [Compound I-79, 3-(1H-benzo[d]imidazol-2-yl)-5-(1-(thiophen-2-ylsulfonyl)-1,2,3,6-tetrahydropyridin-4-yl)pyrazin-2-amine]	< 100 nM
Nc1ncc(N2CCN(C(=O)C3CCCCC3)CC2)nc1-c1nc2ccccc2[nH]1 [Compound I-112, (4-(5-amino-6-(1H-benzo[d]imidazol-2-yl)pyrazin-2-yl)piperazin-1-yl)(cyclohexyl)methanone]	100 to 1000 nM
CC(C)(C)OC(=O)N1CC=C(c2cnc(N)c(-c3noc(-c4ccccc4)n3)n2)CC1 [Compound I-163, Tert-butyl 4-(5-amino-6-(5-phenyl-1,2,4-oxadiazol-3-yl)pyrazin-2-yl)-5,6-dihydropyridine-1(2H)-carboxylate]	100 to 1000 nM
COCCOCC(=O)N1CCN(c2cnc(N)c(C(=O)Nc3ccccn3)n2)CC1 [Compound I-151, 3-amino-6-(4-(2-(2-methoxyethoxy)ethanoyl)piperazin-1-yl)-N-(pyridin-2-yl)pyrazine-2-carboxamide]	1000 to 10000 nM
COCC(=O)N1CC=C(c2cnc(N)c(-c3nnc(-c4ccccc4)o3)n2)CC1 [Compound I-130, 1-(4-(5-amino-6-(5-phenyl-1,3,4-oxadiazol-2-yl)pyrazin-2-yl)-5,6-dihydropyridin-1(2H)-yl)-2-methoxyethanone]	< 100 nM
CNCc1ccc(-c2nnc(-c3nc(N4CC[C@H](OC(=O)NCCOC)C4)cnc3N)o2)cc1 [Compound I-373, [(3S)-1-[5-Amino-6-[5-[4-(methylaminomethyl)phenyl]-1,3,4-oxadiazol-2-yl]pyrazin-2-yl]pyrrolidin-3-yl]N-(2-methoxyethyl)carbamate]	100 to 1000 nM
Nc1ncc(C2=CCN(C(=O)N3CCCCC3)CC2)nc1-c1nnc(-c2ccccc2)o1 [Compound I-236, (4-(5-amino-6-(5-phenyl-1,3,4-oxadiazol-2-yl)pyrazin-2-yl)-5,6-dihydropyridin-1(2H)-yl)(piperidin-1-yl)methanone]	< 100 nM
CNCc1ccc(-c2nnc(-c3nc(N4CCC[C@@H]4CO)cnc3N)o2)cc1 [Compound I-356, [(2R)-1-[5-Amino-6-[5-[4-(methylaminomethyl)phenyl]-1,3,4-oxadiazol-2-yl]pyrazin-2-yl]pyrrolidin-2-yl]methanol]	100 to 1000 nM
Nc1ncc(N2CCN(C(=O)c3cccnc3)CC2)nc1C(=O)Nc1ccccn1 [Compound I-146, 3-amino-N-(pyridin-2-yl)-6-(4-(pyridine-3-carbonyl)piperazin-1-yl)pyrazine-2-carboxamide]	1000 to 10000 nM
Nc1ncc(C2=CCN(C(=O)c3ccccn3)CC2)nc1-c1nnc(-c2ccccc2)o1 [Compound I-132, (4-(5-amino-6-(5-phenyl-1,3,4-oxadiazol-2-yl)pyrazin-2-yl)-5,6-dihydropyridin-1(2H)-yl)(pyridin-2-yl)methanone]	< 100 nM
Cc1ccc2nc(-c3nc(N4CCC(CO)CC4)cnc3N)[nH]c2c1 [Compound I-2, (1-(5-amino-6-(6-methyl-1H-benzo[d]imidazol-2-yl)pyrazin-2-yl)piperidin-4-yl)methanol]	1000 to 10000 nM
CCNC(=O)C1[C@H]2CN(c3cnc(N)c(-c4nnc(-c5ccc(CNC)cc5)o4)n3)C[C@@H]12 (stereo partly drawn) [Compound I-350, (1R,5S)-3-[5-Amino-6-[5-[4-(methylaminomethyl)phenyl]-1,3,4-oxadiazol-2-yl]pyrazin-2-yl]-N-ethyl-3-azabicyclo[3.1.0]hexane-6-carboxamide]	100 to 1000 nM
Nc1ncc(C2=CCN(C(=O)c3c(F)cccc3F)CC2)nc1-c1nc2ccccc2[nH]1 [Compound I-215, (4-(5-amino-6-(1H-benzo[d]imidazol-2-yl)pyrazin-2-yl)-5,6-dihydropyridin-1(2H)-yl)(2,6-difluorophenyl)methanone]	< 100 nM
Nc1ncc(C2=CCN(c3nccs3)CC2)nc1-c1nc2ccccc2[nH]1 [Compound I-164, 3-(1H-benzo[d]imidazol-2-yl)-5-(1-(thiazol-2-yl)-1,2,3,6-tetrahydropyridin-4-yl)pyrazin-2-amine]	< 100 nM

Further lines, results first:

Ki	SMILES
100 to 1000 nM	CC(=O)N1CCN(c2cnc(N)c(-c3nnc(-c4ccccc4)o3)n2)CC1 [Compound I-180, 1-(4-(5-amino-6-(5-phenyl-1,3,4-oxadiazol-2-yl)pyrazin-2-yl)piperazin-1-yl)ethanone]
100 to 1000 nM	CNCc1ccc(-c2nnc(-c3nc(N4CCC[C@@H]4C)cnc3N)o2)cc1 [Compound I-361, 3-[5-[4-(Methylaminomethyl)phenyl]-1,3,4-oxadiazol-2-yl]-5-[(2S)-2-methylpyrrolidin-1-yl]pyrazin-2-amine]
100 to 1000 nM	CCS(=O)(=O)N1CCN(c2cnc(N)c(-c3nnc(-c4ccccc4C)o3)n2)CC1 [Compound I-287, 5-(4-ethylsulfonylpiperazin-1-yl)-3-[5-(o-tolyl)-1,3,4-oxadiazol-2-yl]pyrazin-2-amine]
100 to 1000 nM	CCS(=O)(=O)N1CCN(c2cnc(N)c(-c3nnc(-c4ccc(F)cc4)o3)n2)CC1 [Compound I-292, 5-(4-ethylsulfonylpiperazin-1-yl)-3-[5-(4-fluorophenyl)-1,3,4-oxadiazol-2-yl]pyrazin-2-amine]
1000 to 10000 nM	COCCOCC(=O)N1CCN(c2cnc(N)c(-c3nc4ccccc4[nH]3)n2)CC1 [Compound I-264, 1-(4-(5-amino-6-(1H-benzo[d]imidazol-2-yl)pyrazin-2-yl)piperazin-1-yl)-2-(2-methoxyethoxy)ethanone]
100 to 1000 nM	CCC(=O)N1CCC2(CCN(c3cnc(N)c(-c4nnc(-c5ccc(CNC)cc5)o4)n3)C2)C1 (centres unmarked) [Compound I-342, 1-(7-(5-Amino-6-(5-(4-((methylamino)methyl)phenyl)-1,3,4-oxadiazol-2-yl)pyrazin-2-yl)-2,7-diazaspiro[4.4]nonan-2-yl)propan-1-one]
100 to 1000 nM	CNCc1ccc(-c2nnc(-c3nc(N4CCC5(C4)CN(S(=O)(=O)C(C)C)C5)cnc3N)o2)cc1 [Compound I-368, 5-(2-(Isopropylsulfonyl)-2,6-diazaspiro[3.4]octan-6-yl)-3-(5-(4-((methylamino)methyl)phenyl)-1,3,4-oxadiazol-2-yl)pyrazin-2-amine]
1000 to 10000 nM	Cc1cccc(C)c1C(=O)N1CCN(c2cnc(N)c(-c3nc4ccccc4[nH]3)n2)CC1 [Compound I-275, (4-(5-amino-6-(1H-benzo[d]imidazol-2-yl)pyrazin-2-yl)piperazin-1-yl)(2,6-dimethylphenyl)methanone]
< 100 nM	CN(C)S(=O)(=O)N1CC=C(c2cnc(N)c(-c3nnc(-c4ccccc4)o3)n2)CC1 [Compound I-84, 4-(5-amino-6-(5-phenyl-1,3,4-oxadiazol-2-yl)pyrazin-2-yl)-N,N-dimethyl-5,6-dihydropyridine-1(2H)-sulfonamide]
100 to 1000 nM	CCS(=O)(=O)N1CC2CN(c3cnc(N)c(-c4nnc(-c5ccccc5)o4)n3)CC2C1 (centres unmarked) [Compound I-305, 5-(2-ethylsulfonyl-1,3,3a,4,6,6a-hexahydropyrrolo[3,4-c]pyrrol-5-yl)-3-(5-phenyl-1,3,4-oxadiazol-2-yl)pyrazin-2-amine]
1000 to 10000 nM	Cc1ccc2nc(-c3nc(N4CCN(c5ccccc5F)CC4)cnc3N)[nH]c2c1 [Compound I-45, 5-(4-(2-fluorophenyl)piperazin-1-yl)-3-(6-methyl-1H-benzo[d]imidazol-2-yl)pyrazin-2-amine]
100 to 1000 nM	CCS(=O)(=O)NC1CN(c2cnc(N)c(-c3nnc(-c4ccccc4)o3)n2)C1 [Compound I-302, N-[1-[5-amino-6-(5-phenyl-1,3,4-oxadiazol-2-yl)pyrazin-2-yl]azetidin-3-yl]ethanesulfonamide]
< 100 nM	CCCS(=O)(=O)N1CC=C(c2cnc(N)c(-c3nnc(-c4ccccc4)o3)n2)CC1 [Compound I-124, 3-(5-phenyl-1,3,4-oxadiazol-2-yl)-5-(1-(propylsulfonyl)-1,2,3,6-tetrahydropyridin-4-yl)pyrazin-2-amine]
100 to 1000 nM	Cn1cnc(S(=O)(=O)N2CCN(c3cnc(N)c(-c4nnc(-c5ccccc5)o4)n3)CC2)c1 [Compound I-87, 5-(4-(1-methyl-1H-imidazol-4-ylsulfonyl)piperazin-1-yl)-3-(5-phenyl-1,3,4-oxadiazol-2-yl)pyrazin-2-amine]
